Patent US20240209022A1, “NOVEL PEPTIDE HAVING ANTI-INFLAMMATORY AND TISSUE REGENERATIVE ACTIONS” (KOREA RESEARCH INSTITUTE OF BIOSCIENCE AND BIOTECHNOLOGY, priority 2020, published 2024)

Key:
[1] = test system: MIA-induced degenerative arthritis model; test: MIA-induced degenerative arthritis model; type: in vivo, C57BL/6J mice; details: vs PBS buffer group; for diameter of the knee joint: day 1 after MIA injection, i.p.
Method: As a degenerative arthritis model, 9-week-old specific pathogen free (SPF) male C57BL/6J mice were anesthetized, the area around the right knee joint was cleanly shaved, and 10 μL of MIA solution (monosodium iodoacetate 0.5 mg in 10 μL 0.9% sterile saline) was injected into the knee joint cavity to induce arthritis. From 3 days before MIA (monosodium iodoacetate) solution injection, Amuc_1409 or PEP001, PEP002, PEP003, PEP004, PEP005, PEP006, PEP007, PEP008, PEP009, PEP010, PEP011, PEP012, or PEP013 was dissolved in PBS buffer at a concentration of 6.7 μM and then injected into the mouse peritoneal cavity at 150 μL per animal once a day at the same time. On day 3 (0 days) after administration of Amuc_1409 or PEP001 to PEP013, an additional intraperitoneal injection was given 1 hour before MIA injection, the drug was intraperitoneally injected once a day at the same time after MIA injection, and the experiment was terminated on the 30th day after MIA injection. In the control group, the same volume of PBS buffer was injected intraperitoneally. After MIA injection, the diameter of the knee joint was measured using a caliper for 7 days at 2-day intervals (0, 1, 3, 5, and 7 days) to evaluate swelling caused by inflammatory changes of the joint. […] At this time, the weight bearing on the limb was lower as arthritis was more severe. The weight-bearing weight (g) of each of both paws was measured, and in this experiment, the value was expressed as the ratio (%) of the right hind limb with arthritis to the total hind limb. Weight bearing ratio (%)=weight-bearing weight of right hind limb with arthritis (g)/weight-bearing weight of both hind limbs (g)×100 After termination of the experiment, the test animals were sacrificed, then the knee joint tissue of the mouse was fixed with 10% neutral buffered formalin, and the bone was decalcified with a 0.5 M EDTA solution. Next, the joint tissue was embedded in paraffin to prepare a 5 μm joint section, and Safranin O staining was performed to histopathologically analyze the degree of damage to the cartilage tissue. At this time, the degree of damage to the cartilage tissue was evaluated by examining the degree of safranin O staining of the sections and scored according to OARSI (Osteoarthritis Research Society International grade) guidelines. The scoring criteria according to the OARSI guidelines are as follows (Table 1). [table]

[2] = test system: animal model of metabolic disease accompanied by obesity/diabetes and chronic inflammation; test: High-fat diet obesity/diabetic metabolic disease model; type: in vivo, C57BL/6J mice; details: for blood glucose in insulin resistance experiment (ITT): after insulin administration, time as stated in the value; for blood glucose in insulin resistance experiment (ITT) / AUC value of the insulin resistance experiment / body weight / LDL-C level in blood / TC (total cholesterol) level in blood / abdominal fat: vs PBS buffer group; for body weight: oral, 3 weeks on high-fat diet; for fasting blood glucose: after fasting for 16 hours at the end of the test; for maintenance of the decreased blood glucose in insulin resistance experiment: until 120 minutes after insulin
Method: An animal model of metabolic disease accompanied by obesity/diabetes and chronic inflammation was induced by feeding a high-fat diet.
The experiment in the groups administered with Amuc_1409 or PEP001 to PEP005 was performed using 8-week-old SPF male C57BL/6J mice, and the metabolic disease accompanied by obesity/diabetes and chronic inflammation was induced by ad libitum feeding of a high-fat diet for 45 weeks or 8 weeks. Specifically, mice fed a high-fat diet for 45 weeks were fed a high-fat diet for an additional 3 weeks, and Amuc_1409 was dissolved in PBS buffer at a concentration of 2.4 μM and then orally administered to the mice by 150 μL per animal at the same time once a day until the end of the experiment, or mice fed a high-fat diet for 8 weeks were fed a high-fat diet for an additional 3 weeks, and PEP001, PEP002, PEP003, PEP004, or PEP005 was dissolved in PBS buffer at a concentration of 2.4 μM and then orally administered to the mice by 150 μL per animal at the same time once a day until the end of the experiment. To the control group, PBS buffer was orally administered in the same manner.
For the experiment in the groups administered with PEP006 to PEP013, 8-week-old male C57BL/6J mice were used, and the metabolic disease accompanied by obesity/diabetes and chronic inflammation was induced by ad libitum feeding of a high-fat diet for 32, 50, or 53 weeks. Mice fed a high-fat diet for 32 weeks were fed a high-fat diet for an additional 3 weeks, and a novel tetrapeptide PEP006 was dissolved in PBS buffer at a concentration of 0.15 μg/150 μL (PEP006) and then orally administered to the mice by 150 μL per animal at the same time until the end of the test, mice fed a high-fat diet for 50 weeks were fed a high-fat diet for an additional 3 weeks, and a novel tetrapeptide PEP007, PEP008, PEP009, or PEP010 was dissolved in PBS buffer at a concentration of 0.2 μg/150 μL (PEP007 to PEP013) and then orally administered to the mice by 150 μL per animal at the same time until the end of the test, and mice fed a high-fat diet for 53 weeks were fed a high-fat diet for an additional 3 weeks, and a novel […] PEP011, PEP012, or PEP013 was dissolved in PBS buffer at a concentration of 0.2 μg/150 μL (PEP007 to PEP013) and then orally administered to the mice by 150 μL per animal at the same time until the end of the test. To the control group, PBS buffer was orally administered in the same manner.
For all animals, general symptoms were observed immediately before administration at the start of administration, and the body weight was measured until the end of the test after group separation.
Insulin (Humalog, 1 unit/kg) was intraperitoneally injected into mice fasted for 4 hours at 2 weeks after the start of test substance administration (2 weeks in groups administered with Amuc_1409 and PEP001 to PEP005 and 3 weeks in groups administered with PEP006 to PEP013), and then blood glucose at 30 minutes, 60 minutes, 90 minutes, and 120 minutes was measured from a small amount of blood obtained through a wound at the tip of the tail using ACCU-CHECK (Roche), thereby performing an insulin tolerance test (ITT).
At the end of the test, fasting blood glucose was measured from a small amount of blood obtained through a wound at the tip of the tail of the mouse fasted for 16 hours using ACCU-CHECK, and blood was collected from the orbital venous plexus using a heparin-treated capillary tube. The collected blood was immediately centrifuged at 10,000 rpm (4° C.) for 10 minutes to separate plasma, and then subjected to analysis of total cholesterol (TC) and low-density lipoprotein cholesterol (LDL-C), which are blood abnormal lipid indicators, using an automated blood biochemical analyzer.

[3] = 2 weeks and 4 weeks after MIA injection
[4] = days 3, 5, and 7 after MIA injection

Row | Substance | weight bearing ratio ([1]; 2 weeks after MIA injection) | weight bearing ratio ([1]; 4 weeks after MIA injection) | diameter of the knee joint [1] | thickness of the knee joint ([1]; day 3 after MIA injection) | thickness of the knee joint ([1]; day 5 after MIA injection) | thickness of the knee joint ([1]; day 7 after MIA injection) | blood glucose in insulin resistance experiment (ITT) [2] | AUC value of the insulin resistance experiment [2] | weight bearing ratio [1, 3] | thickness of the knee joint [1, 4] | body weight [2] | LDL-C level in blood [2] | TC (total cholesterol) level in blood [2] | abdominal fat [2] | fasting blood glucose [2] | maintenance of the decreased blood glucose in insulin resistance experiment [2]
1 | RGAY (PEP007) | significantly increased | significantly increased | significantly decreased | significantly decreased | tended to decrease | significantly decreased | decreased to a significant level from 30 minutes to 120 minutes after insulin administration | decreased close to a significant level | – | – | – | – | – | – | – | –
2 | AIS [PEP013] | – | – | – | – | – | – | decreased close to a significant level from 30 minutes to 120 minutes after insulin administration | decreased close to a significant level | tended to be improved | – | – | – | – | – | – | –
3 | IGAY (PEP008) | significantly increased | significantly increased | significantly decreased | significantly decreased | significantly decreased | significantly decreased | decreased to a significant level from 30 minutes to 120 minutes after insulin administration | significantly decreased | – | – | – | – | – | – | – | –
4 | AGAY (PEP006) | significantly increased | significantly increased | – | – | – | – | decreased to a significant level from 30 minutes to 120 minutes after insulin administration | decreased close to a significant level | – | – | – | – | – | – | – | –
5 | SGAY (PEP009) | tended to increase close to a significant level | significantly increased | tended to decrease | significantly decreased | tended to decrease | significantly decreased | decreased to a significant level from 30 minutes to 120 minutes after insulin administration | decreased close to a significant level | – | – | – | – | – | – | – | –
6 | AQS [PEP011] | – | – | – | – | – | – | decreased close to a significant level from 30 minutes to 120 minutes after insulin administration | decreased close to a significant level | significantly improved | – | – | – | – | – | – | –
7 | VGAY (PEP010) | significantly increased | significantly increased | tended to decrease | significantly decreased | significantly decreased | significantly decreased | decreased to a significant level from 30 minutes to 120 minutes after insulin administration | decreased close to a significant level | – | – | – | – | – | – | – | –
8 | AVSSIKGAY (PEP001) | – | – | tended to decrease | – | – | – | decreased at 30 minutes after insulin administration | decreased | significantly increased | significantly decreased | decreased from the initial body weight | significantly decreased | decreased | decreased | – | –
9 | AGS [PEP012] | – | – | – | – | – | – | decreased close to a significant level from 30 minutes to 120 minutes after insulin administration | decreased close to a significant level | significantly improved | – | – | – | – | – | – | –
10 | AVSSI (PEP002) | – | – | significantly decreased | – | – | – | decreased at 30 minutes after insulin administration | decreased | significantly increased | significantly decreased | decreased from the initial body weight | significantly decreased | decreased | decreased | decreased | –
11 | KGAY (PEP003) | – | – | significantly decreased | – | – | – | decreased at 30 minutes after insulin administration | decreased | significantly increased | significantly decreased | significantly decreased | significantly decreased | significantly decreased | decreased | decreased | significantly maintained until 120 minutes
12 | AVS (AVSSIKGAY) [PEP004] | – | – | significantly decreased | – | – | – | decreased at 30 minutes after insulin administration | decreased | significantly increased | significantly decreased | significantly decreased | significantly decreased | tended to decrease | decreased | decreased | significantly maintained until 120 minutes
